Source: US20110039763A1, “TARGETED ANTIMICROBIAL MOIETIES” (C3 JIAN, INC., priority 2009, published 2011)
“Also recorded” adds a separate entry of the source.

Experiments:
microorganisms [1] = test: Peptide activities: targeting/binding, antimicrobial, growth or phenotype altering (Tables 7, 8); assay type: cell-based; conditions: peptides having multiple activities
microorganisms [2] = test: Morphology, biofilm and growth disrupting peptides (Table 5); assay type: cell-based; design: key: A: Peptide aggregates; B: Less hyphal formation; Clumps; Diffuse clumps and small polyps; F: Diffuse growth; H: Thin; I: Growth inhibition; Microcolony formation; Rippled; Small polyps; Thick; W: Halo formation on top, microlonies on bottom
Description: In certain embodiments peptides that induce alterations in phenotype or other biological activities can also be used as antimicrobial effector moieties.

microorganisms [3] = test: Targeting peptide binding to target microorganisms (Tables 3, 10, 12); conditions: microorganism(s) the targeting peptide binds; binding in aqueous buffers varied with peptide solubility, preferably 1x PBS

Row | Substance | Activities (microorganisms [1]) | Organism, effect (microorganisms [2]; C. albicans) | Organism, effect (microorganisms [2]; E. faecalis) | Organism, effect (microorganisms [2]; MRSA) | Organism, effect (microorganisms [2]; S. epidermidis) | Organism, effect (microorganisms [2]; S. pneumoniae) | Target(s) (microorganisms [3]) | Organism, effect (microorganisms [2]; C. jeikeium) | Organism, effect (microorganisms [2]; B. subtilis) | Organism, effect (microorganisms [2]; E. coli) | Organism, effect (microorganisms [2]; M. luteus) | Organism, effect (microorganisms [2]; P. mirabilis) | Organism, effect (microorganisms [2]; S. mutans) | Organism, effect (microorganisms [2]; P. aeruginosa)
1 | PF-627: peptide having multiple activities (chain 1 INDLLSYFTLHEK; chain 2 INDLLSYFTLHEK; Peptide with targeting and/or antimicrobial activity) | G B | C. albicans (B) | E. faecalis (H) | MRSA (R) | S. epidermidis (H) | S. pneumoniae (I) | S. epidermidis and P. aeruginosa and MRSA and S. pneumoniae and E. faecalis and C. jeikeium | – | – | – | – | – | – | –
2 | PF-629: peptide having multiple activities (chain 1 GLAAIATVFALY; chain 2 GLAAIATVFALY; Peptide with targeting and/or antimicrobial activity) | G B | – | E. faecalis (R) | MRSA (D) | S. epidermidis (C) | S. pneumoniae (M) | S. epidermidis and P. aeruginosa and C. albicans and MRSA and S. pneumoniae and E. faecalis and C. jeikeium | C. jeikeium (R) | – | – | – | – | – | –
3 | PF-631: peptide having multiple activities (chain 1 LIIYFSKTGNTARATRQI; chain 2 LIIYFSKTGNTARATRQI; Peptide with targeting and/or antimicrobial activity) | G B | – | E. faecalis (H) | – | – | S. pneumoniae (I) | S. epidermidis and P. aeruginosa and C. albicans and MRSA and S. pneumoniae and E. faecalis and C. jeikeium | – | – | – | – | – | – | –
4 | PF-632: peptide having multiple activities (chain 1 TTIQGVASLEKHGFRYTIIYPTRI; chain 2 TTIQGVASLEKHGFRYTIIYPTRI; Peptide with targeting and/or antimicrobial activity) | G B | C. albicans (B) | E. faecalis (D) | MRSA (D) | S. epidermidis (D) | S. pneumoniae (M) | S. epidermidis and P. aeruginosa and C. albicans and MRSA and S. pneumoniae and E. faecalis and C. jeikeium | C. jeikeium (D) | B. subtilis (H) | – | – | – | – | –
5 | PF-636: peptide having multiple activities (chain 1 LVRLA; chain 2 LVRLA; Peptide with targeting and/or antimicrobial activity) | G B | C. albicans (B) | E. faecalis (H) | – | – | S. pneumoniae (H) | S. epidermidis and C. albicans and MRSA and S. pneumoniae and E. faecalis | – | B. subtilis (H) | – | – | – | – | –
6 | PF-637: peptide having multiple activities (chain 1 SRIKQDARSVRKYDRIGIFFYSFKSA; chain 2 SRIKQDARSVRKYDRIGIFFYSFKSA; Peptide with targeting and/or antimicrobial activity) | G B | – | E. faecalis (D) | MRSA (M) | S. epidermidis (M) | S. pneumoniae (M) | S. epidermidis and P. aeruginosa and C. albicans and MRSA and S. pneumoniae and E. faecalis and C. jeikeium | C. jeikeium (D) | – | – | – | – | – | –
7 | PF-638: peptide having multiple activities (chain 1 TFILPK; chain 2 TFILPK; Peptide with targeting and/or antimicrobial activity) | G B | – | E. faecalis (H) | MRSA (M) | S. epidermidis (R) | S. pneumoniae (I) | S. epidermidis and C. albicans and MRSA and C. jeikeium | – | – | – | – | – | – | –
8 | PF-639: peptide having multiple activities (chain 1 QATQIKSWIDRLLVSED; chain 2 QATQIKSWIDRLLVSED; Peptide with targeting and/or antimicrobial activity) | G B | C. albicans (B) | E. faecalis (H) | MRSA (R) | – | S. pneumoniae (I) | S. pneumoniae; also recorded: C. jeikeium | – | – | – | – | – | – | –
9 | PF-640: peptide having multiple activities (chain 1 MGDINRNF; chain 2 MGDINRNF; Peptide with targeting and/or antimicrobial activity) | G B | C. albicans (B) | E. faecalis (H) | – | – | S. pneumoniae (I) | C. albicans | – | – | – | – | – | – | –
10 | PF-642: peptide having multiple activities (chain 1 FTTPMIGIPAGLLGGSYYLKRREEKGK; chain 2 FTTPMIGIPAGLLGGSYYLKRREEKGK; Peptide with targeting and/or antimicrobial activity) | G B | – | – | MRSA (M) | – | – | M. luteus and MRSA and C. jeikeium | – | – | – | – | – | – | –
11 | PF-655: peptide having multiple activities (chain 1 DAPCFDDQFGDLKCQMC; chain 2 DAPCFDDQFGDLKCQMC; Peptide with targeting and/or antimicrobial activity) | G B | – | – | MRSA (M) | S. epidermidis (R) | S. pneumoniae (H) | M. smegmatis | – | B. subtilis (H) | – | – | – | – | –
12 | PF-664: peptide having multiple activities (chain 1 DQLCVEYPARVSTG; chain 2 DQLCVEYPARVSTG; Peptide with targeting and/or antimicrobial activity) | G B | – | E. faecalis (R) | MRSA (R) | S. epidermidis (M) | S. pneumoniae (M) | M. smegmatis | – | – | – | – | – | – | –
13 | PF-681: peptide having multiple activities (TALTTVGVSGARLITYCVGVEDI; Peptide with targeting and/or antimicrobial activity) | G B | – | E. faecalis (R) | MRSA (M) | S. epidermidis (M) | S. pneumoniae (M) | M. smegmatis | C. jeikeium (R) | – | – | – | – | – | –
14 | PF-686: peptide having multiple activities (LAVLMGYIGYRGWSGKRHINRQ; Peptide with targeting and/or antimicrobial activity) | G B | C. albicans (B) | E. faecalis (R) | MRSA (M) | S. epidermidis (H) | S. pneumoniae (A) | M. smegmatis | – | B. subtilis (I) | – | – | – | – | –
15 | PF-737: peptide having multiple activities (KSSGSSASASSTAGGSSSK; Peptide with targeting and/or antimicrobial activity) | G B | – | – | – | – | S. pneumoniae (D) | S. epidermidis; also recorded: S. pneumoniae | – | – | – | – | – | – | –
16 | PF-738: peptide having multiple activities (KSGATSAASGAKSGASS; Peptide with targeting and/or antimicrobial activity) | G B | – | – | MRSA (M) | – | – | S. epidermidis; also recorded: C. albicans; also recorded: C. jeikeium | – | – | – | – | – | – | –
17 | PF-741: peptide having multiple activities (AKREDTVAAQIGANILNLIQ; Peptide with targeting and/or antimicrobial activity) | G B | – | – | MRSA (C) | S. epidermidis (C) | S. pneumoniae (D) | S. epidermidis and M. luteus and P. mirabilis and P. aeruginosa and C. albicans and MRSA and S. pneumoniae and E. faecalis | – | – | E. coli (C) | M. luteus (C) | P. mirabilis (C) | S. mutans (D) | –
18 | PF-744: peptide having multiple activities (LGVGTFVGKVLIKNQQKQKSKKKAQ; Peptide with targeting and/or antimicrobial activity) | G B | – | – | – | – | S. pneumoniae (H) | S. epidermidis and M. luteus and E. coli and MRSA and S. pneumoniae and E. faecalis and C. jeikeium | – | – | – | – | – | – | –
19 | PF-746: peptide having multiple activities (FLGNSQYFTRK; Peptide with targeting and/or antimicrobial activity) | G B | – | – | MRSA (C) | S. epidermidis (C) | S. pneumoniae (C) | S. epidermidis; also recorded: M. luteus; also recorded: E. coli; also recorded: C. albicans; also recorded: S. pneumoniae; also recorded: E. faecalis; also recorded: C. jeikeium | – | – | E. coli (C) | M. luteus (C) | – | S. mutans (D) | P. aeruginosa (A)
20 | PF-756: peptide having multiple activities (DALLRLA; Peptide with targeting and/or antimicrobial activity) | G B | – | – | – | – | S. pneumoniae (A) | S. epidermidis and M. luteus and C. albicans and MRSA and C. jeikeium | – | – | – | – | – | – | –
